From US9302012B2, “Anti-bacterial siderophore-aminopenicillin conjugates” (University of Notre Dame Du Lac, priority 2012, dated 2016) come the findings set out here.

One experiment relates to E. coli ATCC 25922. Briefly: MIC90 by broth microdilution assay. Format: cell-based, Escherichia coli. As to conditions: for MIC90: Escherichia coli, ATCC25922, 20 h, E. coli ATCC 25922, 37° C., 20 h. As for the experimental part:
(§1) ^aMIC90 values (μM) were determined using the broth microdilution method in Mueller-Hinton broth No. 2 (MHII) with visual end point analysis according to the CLSI guidelines (Methods for Dilution Antimicrobial Susceptibility Tests for Bacteria that Grow Aerobically, 8th ed. (Villanova, Pa., USA), Clinical and Laboratory Standards Institute (CLSI), 2009, approved standard document M07-A7). ^bEach compound was tested in triplicate.
(§2) All liquids and media were sterilized by autoclaving (121° C., 15 min) before use. All aqueous solutions and media were prepared using distilled, deionized, and filtered water (Millipore Milli-Q Advantage A10 Water Purification System). Luria broth (LB) was purchased from VWR. Mueller-Hinton No. 2 broth (MHII broth; cation adjusted) was purchased from Sigma-Aldrich (St. Louis, Mo.). Iron-deficient (—Fe) MHII broth was prepared by adding 0.8 mL of a 1 mg/mL sterile aq. solution of 2,2′-bipyridine to 49.2 mL of MHII broth. Iron-rich (+Fe) MHII broth was prepared by adding 0.8 mL of a 1 mg/mL sterile aq. solution of FeCl3 to 49.2 mL of MHII broth. Mueller-Hinton No. 2 agar (MHII agar; HiMedia Laboratories) was purchased from VWR. Iron-deficient (−Fe) MHII agar was prepared by adding 0.5 mL of a 1 mg/mL sterile aq. solution of 2,2′-bipyridine to 34 mL of melted MHII agar with gentle mixing. Iron-rich (+Fe) MHII agar was prepared by adding 0.5 mL of a 1 mg/mL sterile aq. solution of FeCl3 to 34 mL of melted MHII agar with gentle mixing. See also Wencewicz, T. A. Dissertation, University of Notre Dame, Notre Dame, Ind., 2011, for relevant techniques.
(§3) Determination of MIC90 Values by the Broth Microdilution Assay.
(§4) Antibacterial activity of the compounds was determined by measuring their minimum inhibitory concentrations (MIC90's) using the broth microdilution method according to the Clinical and Laboratory Standards Institute (CLSI, formerly the NCCLS) guidelines. Each well of a 96-well microtiter plate was filled with 50 μL of sterile broth media (−Fe or +Fe). Each test compound was dissolved in DMSO making a 20 mM solution, and then diluted with sterile broth media (−Fe or +Fe) to 400 or 800 μM. Exactly 50 μL of the compound solution was added to the first well of the microtiter plate and 2-fold serial dilutions were made down each row of the plate. Exactly 50 μL of bacterial inoculum (5×10^5 CFU/mL in broth media) was then added to each well giving a total volume of 100 μL/well. The plate was incubated at 37° C. for 20 h and then each well was examined for bacterial growth. The MIC90 was recorded as the lowest compound concentration (μM) required to inhibit 90% of bacterial growth as judged by turbidity of the culture media relative to a row of wells filled with a DMSO standard.

The subject of experiment [1] is K. pneumoniae ATCC 8303 X68. Briefly: MIC90 by broth microdilution assay. Format: cell-based. The note with it: Klebsiella pneumoniae; for MIC90: ATCC8303, 20 h, K. pneumoniae ATCC 8303 X68, 37° C., 20 h; for MIC: ATCC8303, stated as inactive, read-out: MIC against K. pneumoniae. As for the experimental part:
as §1, §2, §3, §4

The subject of experiment [2] is P. aeruginosa PAO1. Briefly: MIC90 by broth microdilution assay. The note with it: Pseudomonas aeruginosa, PAO1, 20 h, 37° C. Format: cell-based. As for the experimental part:
as §1, §2, §3, §4

The next experiment has as its system P. aeruginosa KW799/61. The experiment is described as follows: microbe, parasite or virus in culture. The note with it: for Diameter of growth inhibition zones: P. aeruginosa KW799/61. Format: cell-based, Pseudomonas aeruginosa. As for the experimental part:
as §2, with “All” for “All liquids and media were sterilized by autoclaving (121° C., 15 min) before use. All”, “mixing.” for “mixing. See also Wencewicz, T. A. Dissertation, University of Notre Dame, Notre Dame, Ind., 2011, for relevant techniques.”
(§5) Antibacterial Susceptibility Testing by the Agar Diffusion Assay.
Antibacterial activity of the compounds was determined by a modified Kirby-Bauer agar diffusion assay. Overnight cultures of test organisms were grown in LB broth for 18-24 h and standard suspensions of […] were prepared in saline solution (0.9% NaCl) according to a 0.5 BaSO4 McFarland Standard. This standardized suspension (0.1 mL) was added to 34 mL of sterile, melted agar (−Fe or +Fe) tempered to 47-50° C. […] Wells of 9.0 mm diameter were cut from the petri dish agar and filled with exactly 50 μL of the test sample solution. The petri dish was incubated at 37° C. for 18-24 h and the inhibition zone diameters were measured (mm) with an electronic caliper after 24 h.

The test system of experiment [3] is P. aeruginosa PAO1. Briefly: Agar diffusion antibacterial susceptibility assay. The format is cell-based. As to conditions: Pseudomonas aeruginosa, PAO1, 24 h, 37° C., read-out: Diameter of growth inhibition zones; for zone of inhibition at 200 µM: 50 μL of 0.2 mM solution; for zone of inhibition at 100 µM: 50 μL of 0.1 mM solution. How it is done:
as §2, §5
Antibacterial activity of the compounds was determined by a modified Kirby-Bauer agar diffusion assay. Overnight cultures of test organisms were grown in LB broth for 18-24 h and standard suspensions of […] were prepared in saline solution (0.9% NaCl) according to a 0.5 BaSO4 McFarland Standard. This standardized suspension (0.1 mL) was added to 34 mL of sterile, melted agar (−Fe or +Fe) tempered to 47-50° C. After gentle mixing, the inoculated agar media was poured into a sterile plastic petri dish (145 mm×20 mm) and allowed to solidify near a flame with the lid ajar for about 30 min. Wells of 9.0 mm diameter were cut from the petri dish agar and filled with exactly 50 μL of the test sample solution. The petri dish was incubated at 37° C. for 18-24 h and the inhibition zone diameters were measured (mm) with an electronic caliper after 24 h.

Where [4] appears, read: −Fe (iron-deficient) MHII broth.
Where [5] appears, read: Pseudomonas aeruginosa, KW799/61, 24 h, read-out: Diameter of growth inhibition zones, P. aeruginosa KW799/61, +Fe agar, 50 μL of 0.2 mM solution, 37° C., 24 hours.
The mark [6] stands for this setting: Pseudomonas aeruginosa, KW799/61, 24 h, read-out: Diameter of growth inhibition zones, P. aeruginosa KW799/61, −Fe agar, 50 μL of 0.2 mM solution, 37° C., 24 hours.

≈ marks a conversion by molar mass, not a printed value. Like-named read-outs stand apart in the source and are kept apart here.

For `CC1(C)S[C@@H]2[C@H](NC(=O)[C@H](N)c3ccc(O)cc3)C(=O)N2[C@H]1C(=O)O` [Amoxicillin, reference compound], the MIC90 was 4.17 µM (≈ 1.52 µg/mL) against E. coli ATCC 25922 (+Fe (iron-rich) MHII broth); 4.17 µM (≈ 1.52 µg/mL) in the experiment with E. coli ATCC 25922 (setting [4]); 100 µM (≈ 36.5 µg/mL) in experiment [1] (+Fe (iron-rich) MHII broth); > 100 µM in experiment [1] (setting [4]); > 200 µM with P. aeruginosa PAO1 [2] (+Fe (iron-rich) MHII broth); > 100 µM against P. aeruginosa PAO1 [2] (setting [4]). For the same compound, the “activity against permeable mutant (large zones of inhibition, in words)” value in the experiment with P. aeruginosa KW799/61 (P. aeruginosa permeable mutant K799/61) is given as “highly active”. In addition, the zone of inhibition at 200 µM with P. aeruginosa KW799/61 (setting [5]) was 42 mm; in the experiment with P. aeruginosa KW799/61 (setting [6]), 39 mm; in the experiment on P. aeruginosa PAO1 [3] (+Fe agar), 0 mm; with P. aeruginosa PAO1 [3] (−Fe agar) it was 0 mm.
Consider `CC1(C)S[C@@H]2[C@H](NC(=O)[C@H](N)c3ccccc3)C(=O)N2[C@H]1C(=O)O` [Ampicillin, reference compound], for which the MIC90 is 16.7 µM (≈ 5.84 µg/mL) in the experiment on E. coli ATCC 25922 (+Fe (iron-rich) MHII broth); 12.5 µM (≈ 4.37 µg/mL) against E. coli ATCC 25922 (setting [4]); > 200 µM in experiment [1] (+Fe (iron-rich) MHII broth); > 100 µM in experiment [1] (setting [4]); > 200 µM in the experiment with P. aeruginosa PAO1 [2] (+Fe (iron-rich) MHII broth); > 100 µM in the experiment on P. aeruginosa PAO1 [2] (setting [4]). Moreover, the zone of inhibition at 200 µM in the experiment with P. aeruginosa KW799/61 (setting [5]) is 40 mm; in the experiment on P. aeruginosa KW799/61 (setting [6]) it was 40 mm; in the experiment with P. aeruginosa PAO1 [3] (+Fe agar) it was 0 mm; in the experiment on P. aeruginosa PAO1 [3] (−Fe agar), 0 mm.
As for `CC(=O)Oc1cccc(C(=O)NCCCC(CCCNC(=O)c2cccc(OC(C)=O)c2OC(C)=O)(CCCNC(=O)c2cccc(OC(C)=O)c2OC(C)=O)NC(=O)CCC(=O)NC(C(=O)NC2C(=O)N3C2SC(C)(C)C3C(=O)O)c2ccccc2)c1OC(C)=O` (stereo not drawn) [Compound 10], the MIC90 was 150 µM (≈ 194 µg/mL) with E. coli ATCC 25922 (+Fe (iron-rich) MHII broth); 1.56 µM (≈ 2.02 µg/mL) in the experiment with E. coli ATCC 25922 (setting [4]); > 200 µM in experiment [1] (+Fe (iron-rich) MHII broth); > 100 µM in experiment [1] (setting [4]); 50 µM (≈ 64.7 µg/mL) with P. aeruginosa PAO1 [2] (+Fe (iron-rich) MHII broth); 0.39 µM (≈ 0.505 µg/mL) in the experiment on P. aeruginosa PAO1 [2] (setting [4]). Further, the “increase in activity against E. coli relative to ampicillin” value in the experiment on E. coli ATCC 25922 (MIC compared with parent drug) stood at 8 fold. Also, in experiment [1], the MIC was > 100 µM. Further, in the experiment on P. aeruginosa KW799/61 (+Fe agar, 50 μL of 0.1 mM solution, 37° C., 24 hours), the “Diameter of growth inhibition zones” value came to 13P. In addition, the zone of inhibition at 100 µM in the experiment with P. aeruginosa KW799/61 (Pseudomonas aeruginosa, KW799/61, 24 h, read-out: Diameter of growth inhibition zones, P. aeruginosa KW799/61, −Fe agar, 50 μL of 0.1 mM solution, 37° C., 24 hours) turned out to be 21 mm; with P. aeruginosa PAO1 [3] (+Fe agar), 0 mm; in the experiment on P. aeruginosa PAO1 [3] (−Fe agar), 16 mm.
With `CC(=O)Oc1cccc(C(=O)NCCCC(CCCNC(=O)c2cccc(OC(C)=O)c2OC(C)=O)(CCCNC(=O)c2cccc(OC(C)=O)c2OC(C)=O)NC(=O)CCC(=O)NC(C(=O)NC2C(=O)N3C2SC(C)(C)C3C(=O)O)c2ccc(O)cc2)c1OC(C)=O` (stereo not drawn) [Compound 11], the MIC90 against E. coli ATCC 25922 (+Fe (iron-rich) MHII broth) is 100 µM (≈ 131 µg/mL); in the experiment on E. coli ATCC 25922 (setting [4]), 6.25 µM (≈ 8.19 µg/mL); in experiment [1] (+Fe (iron-rich) MHII broth), > 200 µM; in experiment [1] (setting [4]) it was > 100 µM; with P. aeruginosa PAO1 [2] (+Fe (iron-rich) MHII broth), 50 µM (≈ 65.5 µg/mL); against P. aeruginosa PAO1 [2] (setting [4]), 0.39 µM (≈ 0.511 µg/mL). For the same compound, the “potency against E. coli relative to amoxicillin (in words)” value in the experiment with E. coli ATCC 25922 (MIC compared with parent drug) is “almost as equipotent as amoxicillin”. Also, in experiment [1], the MIC was > 100 µM. In addition, the “Diameter of growth inhibition zones” value in the experiment with P. aeruginosa KW799/61 (+Fe agar, 50 μL of 0.2 mM solution, 37° C., 24 hours) amounted to 13P. Moreover, the zone of inhibition at 200 µM was determined as 26 mm in the experiment on P. aeruginosa KW799/61 (setting [6]), 0 mm with P. aeruginosa PAO1 [3] (+Fe agar) and 19 mm in the experiment on P. aeruginosa PAO1 [3] (−Fe agar).
